Test results taken from ChEMBL document CHEMBL1143693, “Cancer chemopreventive effects of cycloartane-type and related triterpenoids in in vitro and in vivo models” (J Nat Prod, 2007).

Key:
[1] = system: Human gammaherpesvirus 4; assay: Inhibition of TPA-induced Epstein-Barr virus early antigen activation assessed as EBV-EA induction in Raji cells at 0.32 nM after 48 hrs relative to TPA; values are per cent of control; conditions: human gammaherpesvirus 4, Raji
[2] = system: Human gammaherpesvirus 4; assay: Inhibition of TPA-induced Epstein-Barr virus early antigen activation in Raji cells after 48 hrs; type: functional, organism-based; conditions: human gammaherpesvirus 4, Raji
[3] = system: Human gammaherpesvirus 4; assay: Inhibition of TPA-induced Epstein-Barr virus early antigen activation assessed as EBV-EA induction in Raji cells at 320 nM after 48 hrs relative to TPA; values are per cent of control; conditions: human gammaherpesvirus 4, Raji
[4] = Scavenging activity against NO generation in human Chang liver cells assessed as inhibition of NOR1-activation at 350 nM relative to NOR1; type: functional
[5] = system: Human gammaherpesvirus 4; assay: Inhibition of TPA-induced Epstein-Barr virus early antigen activation assessed as EBV-EA induction in Raji cells at 32 nM after 48 hrs relative to TPA; values are per cent of control; conditions: human gammaherpesvirus 4, Raji
[6] = system: Raji; assay: Cell viability of Raji cells at 320 nM; type: functional, Homo sapiens
[7] = system: Human gammaherpesvirus 4; assay: Inhibition of TPA-induced Epstein-Barr virus early antigen activation assessed as EBV-EA induction in Raji cells at 3.2 nM after 48 hrs relative to TPA; values are per cent of control; conditions: human gammaherpesvirus 4, Raji

| Structure (SMILES) | level, % of control at 0.00032 µM [1] | IC50 [2] | level, % of control at 0.32 µM [3] | Activity [4] | level, % of control at 0.032 µM [5] | Activity [6] | level, % of control at 0.0032 µM [7] |
| --- | --- | --- | --- | --- | --- | --- | --- |
| C[C@H](C/C=C/C(C)(C)O)[C@H]1CC[C@@]2(C)[C@@H]3CC[C@H]4C(C)(C)C(=O)CC[C@@]45C[C@@]35CC[C@]12C | 90.1% | 8.6 nM | 0% | 1.9 | 20% | 70% | 67.2% |
| C=C(C)[C@@H](C)CC[C@@H](C)[C@H]1CC[C@@]2(C)[C@@H]3CC[C@H]4[C@@H](C)C(=O)CC[C@@]45C[C@@]35CC[C@]12C | 94.6% | 9.9 nM | 0% | 1.8 | 32.4% | 70% | 72.7% |
| CC(=O)O[C@H]1CC[C@]23C[C@]24CC[C@]2(C)[C@@H]([C@H](C)CCC=C(C)C)CC[C@@]2(C)[C@@H]4CC[C@H]3C1(C)C [CYCLOARTENOL ACETATE] | 96.9% | 10.1 nM | 0% | 1.8 | 32.3% | 70% | 73.1% |
| COc1cc(/C=C/C(=O)O[C@H]2CC[C@]34C[C@]35CC[C@]3(C)[C@@H]([C@H](C)CCC=C(C)C)CC[C@@]3(C)[C@@H]5CC[C@H]4C2(C)C)ccc1O [GAMMA ORYZANOL] | 100% | 15.9 nM | 19.7% | 1.5 | 56% | 70% | 84.7% |
| CC1(C)[C@@H](O[C@H]2O[C@H](C(=O)O)[C@@H](O)[C@H](O)[C@H]2O[C@@H]2O[C@H](C(=O)O)[C@@H](O)[C@H](O)[C@H]2O)CC[C@]2(C)[C@H]3C(=O)C=C4[C@@H]5C[C@@](C)(C(=O)O)CC[C@]5(C)CC[C@@]4(C)[C@]3(C)CC[C@@H]12 [GLYCYRRHIZIN] | – | – | – | 2.2 | – | – | – |
| C=C(CC[C@@H](C)[C@H]1CC[C@@]2(C)[C@@H]3CC[C@H]4C(C)(C)[C@@H](O)CC[C@@]45C[C@@]35CC[C@]12C)C(C)C | 91.4% | 8.8 nM | 0% | 1.7 | 23.2% | 70% | 68.1% |
| CC(C)=CCC[C@@H](C)[C@H]1CC[C@@]2(C)[C@@H]3CC[C@H]4C(C)(C)[C@@H](O)CC[C@@]45C[C@@]35CC[C@]12C [CYCLOARTENOL] | 93.5% | 8.8 nM | 0% | 1.6 | 25.8% | 70% | 69.9% |
| CC(C)C(=O)CC[C@@H](C)[C@H]1CC[C@@]2(C)[C@@H]3CC[C@H]4C(C)(C)[C@@H](O)CC[C@@]45C[C@@]35CC[C@]12C | 90.5% | 8.1 nM | 0% | 2 | 19.8% | 70% | 62.7% |
| CC(C)CCC[C@@H](C)C1=CC[C@@]2(C)[C@@H]3CC[C@H]4C(C)(C)[C@@H](O)CC[C@@]45C[C@@]35CC[C@]12C | 96.5% | 10.1 nM | 0% | 1.6 | 32.1% | 70% | 72.6% |
| C=C(C)[C@@H](C)CC[C@@H](C)[C@H]1CC[C@@]2(C)[C@@H]3CC[C@H]4C(C)(C)[C@@H](O)CC[C@@]45C[C@@]35CC[C@]12C [CYCLOLAUDENOL (24S)] | 93.6% | 8.9 nM | 0% | 1.8 | 30.6% | 70% | 70% |
| CC(C)CCC[C@@H](C)[C@H]1CC[C@@]2(C)[C@@H]3CC[C@H]4[C@H](C)[C@@H](O)CC[C@@]45C[C@@]35CC[C@]12C | 95.6% | 9.9 nM | 0% | 1.5 | 31.5% | 70% | 72.6% |
| CC(C)CCC[C@@H](C)[C@H]1CC[C@@]2(C)[C@@H]3CC[C@H]4C(C)(C)[C@@H](O)CC[C@@]45C[C@@]35CC[C@]12C [CYCLOARTANOL] | 95% | 9.4 nM | 0% | 1.8 | 30.2% | 70% | 70.2% |
| C=C(C)C(=O)CC[C@@H](C)[C@H]1CC[C@@]2(C)[C@@H]3CC[C@H]4C(C)(C)[C@@H](O)CC[C@@]45C[C@@]35CC[C@]12C | 97.8% | 9.3 nM | 1.5% | 1.4 | 25.4% | 70% | 73.1% |
| CC(=O)O[C@@H]1CC[C@]23C[C@]24CC[C@]2(C)[C@@H]([C@H](C)CCC=C(C)C)CC[C@@]2(C)[C@@H]4CC[C@H]3C1(C)C | 96% | 10.2 nM | 0% | 1.6 | 33.2% | 70% | 73.1% |
| CC(C)C(=O)CC[C@@H](C)[C@H]1CC[C@@]2(C)[C@@H]3CC[C@H]4C(C)(C)C(=O)CC[C@@]45C[C@@]35CC[C@]12C | 96.3% | 9 nM | 0% | 1.9 | 24% | 70% | 72.1% |
| C[C@H](CCC(O)C(C)(C)O)[C@H]1CC[C@@]2(C)[C@@H]3CC[C@H]4C(C)(C)C(=O)CC[C@@]45C[C@@]35CC[C@]12C (stereo not given in full) | 88.4% | 7.4 nM | 0% | 2 | 19.1% | 70% | 66.8% |
| CC1(C)N([O])C(c2ccc(C(=O)O)cc2)=[N+]([O-])C1(C)C | – | – | – | 8 | – | – | – |
| CC1=C(/C=C/C(C)=C/C=C/C(C)=C/C=C/C=C(C)/C=C/C=C(C)/C=C/C2=C(C)CCCC2(C)C)C(C)(C)CCC1 [BETA CAROTENE] | 100% | 12.7 nM | 8.6% | – | 34.2% | 70% | 82.1% |
| CC1=C(/C=C/C(C)=C/C=C/C(C)=C/C(=O)O)C(C)(C)CCC1 [TRETINOIN] | 100% | 15.4 nM | 21.6% | – | 49.3% | 60% | 76.3% |
| COc1cc(/C=C/C(=O)CC(=O)/C=C/c2ccc(O)c(OC)c2)ccc1O [CURCUMIN] | 100% | 10.2 nM | 0% | – | 22.8% | 60% | 81.7% |
